According to ChEMBL document CHEMBL1201862, “PubChem BioAssay data set” (2004):
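Growth conditions: 96-well plates. Treatment: test compound, 48 hours, 5 concentrations. Analysis: linear interpolation between bracketing concentrations; unreached endpoints set to highest concentration. GI50 marks 50% less growth.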 The source made the active and inactive calls. No stated cut-off is given here; in the data, active = GI50 up to about 1.1 µM and inactive = higher. Where a SMILES comes first, the peptide text is derived from it. [ ]: non-standard residue; d: D form. Hiv = CC(C)[C@H](O)C(=O)O

Key:
Assay in all cases: NCI tumour cell line growth inhibition, 48 h
SF-539 = test system: SF-539
SK-MEL-28 = test system: SK-MEL-28
TK-10 = test system: TK-10
SR = test system: SR
CCRF-CEM = test system: CCRF-CEM
HL-60 = test system: HL-60
NCI-H522 = test system: NCI-H522
OVCAR-3 = test system: OVCAR-3
HCT-116 = test system: HCT-116
CAKI-1 = test system: CAKI-1
MDA-MB-435 = test system: MDA-MB-435
NCI-H226 = test system: NCI-H226
HOP-62 = test system: HOP-62
OVCAR-5 = test system: OVCAR-5
SF-295 = test system: SF-295
ACHN = test system: ACHN
RXF 393 = test system: RXF 393
HOP-92 = test system: HOP-92
EKVX = test system: EKVX

SMILES	GI50 (SF-539)	GI50 (SK-MEL-28)	GI50 (TK-10)	GI50 (SR)	GI50 (CCRF-CEM)	GI50 (HL-60)	GI50 (NCI-H522)	GI50 (OVCAR-3)	GI50 (HCT-116)	GI50 (CAKI-1)	GI50 (MDA-MB-435)	GI50 (NCI-H226)	GI50 (HOP-62)	GI50 (OVCAR-5)	GI50 (SF-295)	GI50 (ACHN)	GI50 (RXF 393)	GI50 (HOP-92)	GI50 (EKVX)
Cc1ncc([N+](=O)[O-])n1CCNC(=O)Cn1c([N+](=O)[O-])cnc1C	> 100 µM (inactive)	> 100 µM (inactive)	> 100 µM (inactive)	> 100 µM (inactive)	> 100 µM (inactive)	> 100 µM (inactive)	> 100 µM (inactive)	> 100 µM (inactive)	> 100 µM (inactive)	> 100 µM (inactive)	> 100 µM (inactive)	> 100 µM (inactive)	> 100 µM (inactive)	> 100 µM (inactive)	> 100 µM (inactive)	> 100 µM (inactive)	–	–	–
CCN1CN(c2ccccc2)C2(CCN(CC3COc4ccccc4O3)CC2)C1=O (stereo not drawn)	18.6 µM (inactive)	32.5 µM (inactive)	25.8 µM (inactive)	5.13 µM (inactive)	18.4 µM (inactive)	16.1 µM (inactive)	18 µM (inactive)	31.2 µM (inactive)	17.6 µM (inactive)	43 µM (inactive)	23.3 µM (inactive)	24 µM (inactive)	35.6 µM (inactive)	24.3 µM (inactive)	39.9 µM (inactive)	23.1 µM (inactive)	15.5 µM (inactive)	–	–
Clc1ncnc(Cl)c1Cl	> 100 µM (inactive)	> 100 µM (inactive)	> 100 µM (inactive)	> 100 µM (inactive)	> 100 µM (inactive)	–	> 100 µM (inactive)	> 100 µM (inactive)	> 100 µM (inactive)	> 100 µM (inactive)	> 100 µM (inactive)	> 100 µM (inactive)	> 100 µM (inactive)	> 100 µM (inactive)	> 100 µM (inactive)	> 100 µM (inactive)	> 100 µM (inactive)	> 100 µM (inactive)	–
Cc1ccc(S(=NS(=O)(=O)c2ccc(C)cc2)c2ccc(C)cc2)cc1	> 100 µM (inactive)	> 100 µM (inactive)	> 100 µM (inactive)	36.9 µM (inactive)	57 µM (inactive)	34.7 µM (inactive)	–	76 µM (inactive)	56.9 µM (inactive)	–	60.3 µM (inactive)	> 100 µM (inactive)	> 100 µM (inactive)	> 100 µM (inactive)	75.7 µM (inactive)	> 100 µM (inactive)	81.8 µM (inactive)	> 100 µM (inactive)	86.5 µM (inactive)
C=CCN(c1cc(OC)c(NC(C)=O)cc1[N+](=O)[O-])S(C)(=O)=O	–	> 100 µM (inactive)	> 100 µM (inactive)	> 100 µM (inactive)	> 100 µM (inactive)	> 100 µM (inactive)	0.0349 µM (active)	> 100 µM (inactive)	> 100 µM (inactive)	> 100 µM (inactive)	> 100 µM (inactive)	> 100 µM (inactive)	> 100 µM (inactive)	> 100 µM (inactive)	> 100 µM (inactive)	> 100 µM (inactive)	> 100 µM (inactive)	–	> 100 µM (inactive)
CN(C)/C=N/S(=O)(=O)c1nn2c(C=O)c(-c3ccccc3)nc2s1	17.7 µM (inactive)	9.2 µM (inactive)	12.9 µM (inactive)	5.74 µM (inactive)	2.96 µM (inactive)	–	3.37 µM (inactive)	8.32 µM (inactive)	3.26 µM (inactive)	0.658 µM (active)	12.4 µM (inactive)	21.4 µM (inactive)	47.2 µM (inactive)	47.1 µM (inactive)	52.8 µM (inactive)	5.65 µM (inactive)	13 µM (inactive)	17.5 µM (inactive)	30.5 µM (inactive)
CC(Nc1ncc2c(n1)-c1ccccc1OC2)C(=O)O (stereo not drawn)	> 100 µM (inactive)	> 100 µM (inactive)	> 100 µM (inactive)	48.5 µM (inactive)	> 100 µM (inactive)	6.89 µM (inactive)	–	27.9 µM (inactive)	> 100 µM (inactive)	30.8 µM (inactive)	> 100 µM (inactive)	61.7 µM (inactive)	51.6 µM (inactive)	> 100 µM (inactive)	> 100 µM (inactive)	> 100 µM (inactive)	> 100 µM (inactive)	35.9 µM (inactive)	44.1 µM (inactive)
CC(=O)C(C(=O)c1ccc(C)cc1)[C@H]1OC(C)(C)O[C@H]1[C@H]1COC(C)(C)O1 (stereo partly drawn)	1.87 µM (inactive)	6.18 µM (inactive)	7.73 µM (inactive)	1.42 µM (inactive)	–	–	2.34 µM (inactive)	–	2.25 µM (inactive)	5.38 µM (inactive)	2.24 µM (inactive)	14.5 µM (inactive)	6.12 µM (inactive)	8.39 µM (inactive)	7.78 µM (inactive)	6.15 µM (inactive)	2.69 µM (inactive)	7.98 µM (inactive)	5.32 µM (inactive)
Cc1c(-c2ccccc2)nn2cc(-c3ccccc3)nnc12	–	27.6 µM (inactive)	42.4 µM (inactive)	33.5 µM (inactive)	27.4 µM (inactive)	–	15.5 µM (inactive)	32.7 µM (inactive)	20.7 µM (inactive)	45.7 µM (inactive)	29.5 µM (inactive)	21.2 µM (inactive)	28.7 µM (inactive)	30.7 µM (inactive)	34.8 µM (inactive)	46.3 µM (inactive)	18.2 µM (inactive)	15.5 µM (inactive)	–
CCOC(=O)c1sc2[n+](c1C)C(=O)/C(=C/c1ccc([N+](=O)[O-])cc1)S2	21.2 µM (inactive)	27.4 µM (inactive)	20.6 µM (inactive)	24.3 µM (inactive)	> 100 µM (inactive)	75.7 µM (inactive)	–	9.08 µM (inactive)	20.8 µM (inactive)	15.1 µM (inactive)	18 µM (inactive)	28.3 µM (inactive)	20.7 µM (inactive)	31.7 µM (inactive)	18.5 µM (inactive)	30.6 µM (inactive)	29.8 µM (inactive)	> 100 µM (inactive)	–
CN(C)c1ncc(-c2c[nH]c3ccccc23)nc1-c1c[nH]c2ccccc12	4.21 µM (inactive)	2.89 µM (inactive)	8.59 µM (inactive)	3.24 µM (inactive)	–	2.02 µM (inactive)	–	5.75 µM (inactive)	3.13 µM (inactive)	3.47 µM (inactive)	3.31 µM (inactive)	–	8.18 µM (inactive)	4.68 µM (inactive)	2.33 µM (inactive)	2.67 µM (inactive)	1.96 µM (inactive)	3.2 µM (inactive)	3.32 µM (inactive)
COC(=O)n1c(=O)n(-c2ccccc2)c(=O)n1C(=O)OC	> 100 µM (inactive)	> 100 µM (inactive)	> 100 µM (inactive)	> 100 µM (inactive)	> 100 µM (inactive)	> 100 µM (inactive)	> 100 µM (inactive)	> 100 µM (inactive)	> 100 µM (inactive)	> 100 µM (inactive)	> 100 µM (inactive)	> 100 µM (inactive)	–	> 100 µM (inactive)	–	–	> 100 µM (inactive)	–	> 100 µM (inactive)
Cc1cc(C)c2nccc(NCCCN(C)C)c2c1[N+](=O)[O-]	34.9 µM (inactive)	19.6 µM (inactive)	30.8 µM (inactive)	30.6 µM (inactive)	37.2 µM (inactive)	25.9 µM (inactive)	14.4 µM (inactive)	35.5 µM (inactive)	30.9 µM (inactive)	32.2 µM (inactive)	29.6 µM (inactive)	–	47.9 µM (inactive)	44 µM (inactive)	26.1 µM (inactive)	34.9 µM (inactive)	19.5 µM (inactive)	–	64 µM (inactive)
O=C1c2cccc(O)c2C(=O)c2c(OC3OC(CO)C(O)C(O)C3O)cccc21 (stereo not drawn)	25.5 µM (inactive)	> 100 µM (inactive)	40.4 µM (inactive)	32.4 µM (inactive)	–	–	15.8 µM (inactive)	31.4 µM (inactive)	19.8 µM (inactive)	55.5 µM (inactive)	18.2 µM (inactive)	> 100 µM (inactive)	46.3 µM (inactive)	51.6 µM (inactive)	48.5 µM (inactive)	61.7 µM (inactive)	26 µM (inactive)	73.8 µM (inactive)	32.7 µM (inactive)
CC(=O)Oc1ccc(/C=C/C(=O)O[C@@H](C(=O)O)[C@@H](OC(=O)/C=C/c2ccc(OC(C)=O)c(OC(C)=O)c2)C(=O)O)cc1OC(C)=O	–	> 100 µM (inactive)	> 100 µM (inactive)	> 100 µM (inactive)	> 100 µM (inactive)	–	> 100 µM (inactive)	> 100 µM (inactive)	> 100 µM (inactive)	> 100 µM (inactive)	> 100 µM (inactive)	–	> 100 µM (inactive)	> 100 µM (inactive)	> 100 µM (inactive)	> 100 µM (inactive)	> 100 µM (inactive)	> 100 µM (inactive)	> 100 µM (inactive)
CC(C)[C@@H]1OC(=O)[C@@H](C)NC(=O)[C@@H]2CCCN2C1=O (cyclo([Hiv]-Pro-[dA]))	> 100 µM (inactive)	> 100 µM (inactive)	> 100 µM (inactive)	> 100 µM (inactive)	> 100 µM (inactive)	> 100 µM (inactive)	–	> 100 µM (inactive)	> 100 µM (inactive)	> 100 µM (inactive)	> 100 µM (inactive)	> 100 µM (inactive)	> 100 µM (inactive)	> 100 µM (inactive)	> 100 µM (inactive)	> 100 µM (inactive)	> 100 µM (inactive)	> 100 µM (inactive)	> 100 µM (inactive)
